According to patent US12214076B2, “Drug delivery vehicles for atherosclerosis nanomedicine” (Northwestern University, priority 2019, dated 2025):
Peptide text beside a SMILES is read from it. * marks the point of attachment. Palmitoyl = CCCCCCCCCCCCCCCC(=O)*

How the values were obtained:
[1] = system: J774.2 murine macrophages; experiment: Nitric oxide production of stimulated macrophages; type: cell-based, mouse; conditions: 24 hours, LPS and stimulated, 32 μM Ac2-26 or epitope equivalent
Experimental: Macrophage culture and characterization: J774.2 murine macrophages (Sigma-Aldrich) were expanded at 4-9×10^5 cells/mL in growth media consisting of Dulbecco's Modified Eagle's Medium (Sigma-Aldrich) containing 4.5 g/L glucose, 2 mM L-glutamine, 10% v/v FBS, 100 U/m penicillin, and 100 μg/mL streptomycin. Cells were passaged using Accutase™ (StemCell Technologies) and used at passage 6-9 for all experiments. The cells were detached with Accutase™ and gentle scraping, counted, and re-suspended in flow cytometry buffer containing 2% w/v bovine serum albumin (BSA, heat shock fraction free of proteases, globulin, and fatty acids, Sigma-Aldrich) and 0.1% w/v sodium azide (Sigma-Aldrich). To minimize non-specific binding of immunoglobin to Fc receptors, macrophages were incubated with anti-mouse CD16/32 antibody (TrueStain FcX™, Biolegend) at 1 μg/1×10^5 cells for 10 minutes at 4° C. APC anti-mouse CD11b antibody or APC Armenian hamster IgG isotype control antibody (Biolegend) were added at 0.4 μg/1×10^5 cells, FPR2 antibody (Novus Biologics) was added at […], and all samples were incubated for 30 minutes at 4° C. The cells were washed once with flow cytometry buffer by centrifugation at 300×g. FPR2 samples were further treated with goat anti-rabbit Alexa Fluor 488 secondary antibody (Invitrogen) at 2 μg/1×10^5 cells for 20 minutes at 4° C., followed by a wash step. Unstained macrophages served as controls and contained 7AAD viability staining solution (Biolegend) at 0.1 μg/1×10^5. All samples were suspended in 4% paraformaldehyde (Electron Microscopy Sciences) in PBS until analysis. […] All samples were analyzed using Attune NxT Acoustic Focusing Cytometer (Thermo Fisher) with at least 2000 events counted per condition.
Therapeutic effects of ApoA1-Ac2-26 PAs: 10% ROS- and MMP-Ac2-26 PAs, as well as Ac2-26 peptide were added together with 10 μg/mL LPS at 32 μM Ac2-26 to macrophages. […] Concerning the quantification of NO, the reducing solution made of KI in acetic acid and water provides an excess of I− that reacts with nitrite yielding ·NO. […]

Zeta potential = type: physicochemical
Experimental: Zeta potential: The PA charge was characterized using a Zetasizer Nano ZS (Malvern). Samples were prepared at 0.5 mM and passed through a 0.2 μm filter (Acrodisc® Syringe Filters with Supor® Membrane, Pall). At least 10 scans were taken per measurement, three measurements per sample at 25° C. and 37° C.

Question: Which “macrophage activation, nitric oxide production relative to the stimulated control” value [1] does the source give for `CCCCCCCCCCCCCCCC(=O)N[C@H](C(=O)N[C@H](C(=O)N[C@@H](C)C(=O)N[C@@H](C)C(=O)N[C@@H](CCC(=O)O)C(=O)N[C@@H](CCC(=O)O)C(=O)NCC(=O)N[C@@H](CC(=O)O)C(=O)N[C@@H](Cc1c[nH]c2ccccc12)C(=O)N[C@@H](Cc1ccccc1)C(=O)N[C@@H](CCCCN)C(=O)N[C@@H](C)C(=O)N[C@@H](Cc1ccccc1)C(=O)N[C@@H](Cc1ccc(O)cc1)C(=O)N[C@@H](CC(=O)O)C(=O)N[C@@H](CCCCN)C(=O)N[C@H](C(=O)N[C@@H](C)C(=O)N[C@@H](CCC(=O)O)C(=O)N[C@@H](CCCCN)C(=O)N[C@@H](Cc1ccccc1)C(=O)N[C@@H](CCCCN)C(=O)N[C@@H](CCC(=O)O)C(=O)N[C@@H](C)C(=O)N[C@@H](Cc1ccccc1)C(N)=O)C(C)C)C(C)C)C(C)C` [ApoA1 PA] (Palmitoyl-VVAAEEGDWFKAFYDKVAEKFKEAF-NH2) here?
Answer: did not cause significant decreases in nitric oxide production

Question: With “10% MMP-Ac2-26 PA: co-assembly of 10 mol % MMP-Ac2-26 PA, 50 mol % E2 filler PA, and 40% ApoA1 PA (VVAAEEGGGPQGIWGQGKAMVSEFLKQAWFIENEEQEYVQTVK)” as the compound, how does the “overall charge (zeta potential)” value (Zeta potential; 25° C.) read?
Answer: −18.1±0.5 mV

Question: And the “overall charge (zeta potential)” value (Zeta potential; 37° C.)?
Answer: maintained

Question: What about the “macrophage activation, nitric oxide production relative to the stimulated control” value [1] of the same compound?
Answer: significantly reduced
